Blank lines part the entries; values can stand above or below the compound they belong to. {AF700} = Alexa Fluor 700 fluorescent dye
Experiments:
[1] = at a comparable temperature; cited from earlier work
[2] = Hydration entropy from literature; assay type: physicochemical; settings: linear scaling with surface area using radius a=2 nm
Text: The intercept ST(λDH=0), where ionic contributions are zero, also scales with particle surface and is described by a hydration entropy per particle surface of shyd=−1400 J/(molKμm^2). The value matches the literature values for similar surfaces reasonably well^30,31. […] Linear scaling with its surface area by using a radius of a=2 nm results in a value of shyd=−2500 J/(molKμm^2), in qualitative agreement with our result. The hydration entropy is a highly informative molecule parameter which is notoriously difficult to measure, yielding an interesting application for thermodiffusion.

[3] = Thermodiffusion (Soret coefficient) by microfluidic fluorescence imaging / single particle tracking; assay type: physicochemical; settings: 50 μM dye in 10 mM TRIS buffer, concentration over time method
bacteriophage lambda DNA = test: DNA hybridization thermophoresis of labelled probe with lambda DNA; assay type: binding
Protocol: Typical target molecules are longer than 20 bases and double stranded. For target molecules longer than 20 bases and double stranded, one has to expect a competing reaction between the labeled probe and the target DNA strands containing the same “probe-sequence”. […] The concentration change is determined in samples containing the pure DNA probe and in solutions containing the probe mixed with lambda DNA. We checked twice for the hybridization of probe DNA and lambda DNA. First after simply mixing of the molecules and second after an additional annealing procedure (94° C., 5 min and 72° C., 5 min) was carried out.
The experiment shown in FIG. 38 (b) is performed at a constant concentration of 40 nM probe DNA and 10 nM target DNA. All samples are preferably measured in a 100 μm-1 mm Capillary. The thermo-optical properties of the probe DNA have been determined in an independent experiment, followed by a mix of probe and target. […]
After an equilibration time of preferably 10 seconds a first capillary can be measured. […]
Step 1. […] (The thermo-optical properties (i.e. concentration change) of the free probe molecule is known from an independent experiment. Alternatively the thermo-optical behavior of a DNA molecule similar to the probe, but not complementary to a target molecule, is measured simultaneously in a multiplex approach (internal reference)).
Step 2. […] The immediately established local spatial temperature distribution causes the labeled primers and elongated primers (as well as internal reference standards) to drift to lower or higher temperatures, depending on the particular molecule to be analyzed and conditions like pH, salt concentration etc. […] The maximum temperature elevation is set below values which would harm the molecules to be analyzed or hinder their hybridization. […]
Step 3. During the laser heating an image of the fluorescence distribution is recorded (or multiple frames which may be averaged to a single image). Afterwards the infrared laser and the fluorescence excitation light source are turned off. […]

- hydration entropy per surface shyd [2]: −2500 J/(molKμm^2)
Compound: C[C@H](NS(=O)(=O)c1cccc2c(N(C)C)cccc12)C(=O)O [Dansyl-Alanine]
- hydration entropy [1]: −0.13 J/(molK)

- Soret coefficient ST [3]: 0.015 /K
Compound: BCECF

Compound: 5′-GATGAGTTCGTGTCCGTACAACTGG-3′ (DNA, 5' {AF700}, backbone and methylation of C not given here) [probe]
- concentration change (bacteriophage lambda DNA; free probe, 40 nM): −2%
- concentration change (bacteriophage lambda DNA; probe 40 nM mixed with 10 nM lambda DNA, without annealing procedure): −3%
- concentration change (bacteriophage lambda DNA; probe 40 nM with 10 nM lambda DNA after denaturing (94° C., 5 min) and annealing (72° C., 5 min)): −10%

— US8741570B2, “Thermo-optical characterisation of nucleic acid molecules” (Ludwig-Maximilians-Universitat Munchen, priority 2008, dated 2014)
